Converted amounts (≈) assume the structure as drawn. Like-named read-outs stand apart in the source and are kept apart here.
Legend:
[1] = tested on: E. multilocularis metacestodes; assay: BPQ treatment of E. multilocularis infected mice; format: in vivo, Balb/c mice
Method: Balb/c mice, 6 weeks old, were purchased from Charles River Laboratories (Sulzheim, Germany) and used for in vivo experiments when they were 8 weeks old and weighted approximately 20 g. The mice were housed in a type 3 cage containing enrichment in the form of a cardboard house and paper and woodchip bedding with a maximum of seven mice per cage. […] Food and water was provided ad libitum. Experimentally infected mice were treated with BPQ to elucidate the efficacy of the drug in vivo. To infect mice, in vitro grown E. multilocularis metacestodes (isolate […]) were washed in PBS, were mechanically destroyed by pipetting and the resulting suspension was centrifuged for 5 min at 500 g. The parasite tissue was then taken up in an equal volume of PBS. Each mouse was subsequently infected intraperitoneally (i.p.) with 200 μl of this suspension. […] infected mice were randomly distributed into 3 treatment groups (8 animals per group) with 4 animals per cage. […] Treatments of mice started 2 weeks post-infection and lasted for 4 weeks, with consecutive treatment of mice for 5 days per week, followed by an interruption of treatment for 2 days for recovery. All treatments were administered by oral gavage in a volume of 50 μl, with ABZ and BPQ being suspended in corn oil. After four weeks, all mice were anesthetized with isoflurane and subsequently euthanized by CO2. The parasitic tissue from each mouse was completely resected and weighed. The mass of the resected parasitic tissue was used for statistical analyses of the experiment. […] The significance level was set to p < 0.05. Figures were prepared in R and Adobe Illustrator 2015.1.0.

[2] = tested on: E. multilocularis metacestodes; assay: PGI-assay: drug-induced damage on in vitro cultured metacestodes (Pathogen Box screening cascade and EC50); format: cell-based, Echinococcus multilocularis; details: for PGI release, % of Tx-100 control, average, 5d / PGI release, % of Tx-100 control, average, 12d: 1 µM; for PGI release, % of Tx-100 control, average, 5d / PGI release, % of Tx-100 control, average, 12d / activity against metacestodes at 1 μM: triplicates; for activity in the screen at 10 μM (confirmed in triplicates, >20% relative PGI release): 5 and 12 days; for PGI release, % of Tx-100 control at 10 µM: confirmatory screening at 10 µM in triplicates, values as % of Tx-100 control; for toxicity against E. multilocularis metacestodes compared with host cells (HFF, RH): comparison of EC50 with IC50 on mammalian cells; for activity in the screen at 10 μM (confirmed in triplicates, >20% relative PGI release) / activity in the present in vitro screen (threshold 20% relative activity compared to Tx-100): 10 μM
[3] = tested on: E. multilocularis metacestodes; details: cited from earlier work; for effect in vitro against E. multilocularis metacestodes: ref Reuter et al.
[4] = tested on: E. multilocularis metacestodes; assay: Vesicle viability assay by Alamar Blue (MIC); format: cell-based, Echinococcus multilocularis
Method: The setup was the same as for PGI-assay EC50 calculations and it was performed in triplicates. […] Data was used to calculate the minimal inhibitory concentrations (MICs) of these compounds on metacestodes.

[5] = tested on: Reuber rat hepatoma (RH) cells; assay: Cytotoxicity by Alamar Blue assay in rat hepatoma cells; format: cell-based; details: 120 h
[6] = tested on: human foreskin fibroblasts (HFF); assay: Cytotoxicity by Alamar Blue assay in human foreskin fibroblasts; details: for IC50: Homo sapiens, Fibroblast, 120 h
[7] = Echinococcus multilocularis, 120 h, 10 µM, singlets, 5 days of incubation, read-out: PGI release, % of the Tx-100 control, 5d
[8] = Echinococcus multilocularis, 120 h, 5 days of incubation, read-out: PGI release, % of Tx-100 control, average, 5d
[9] = Echinococcus multilocularis, 288 h, 10 µM, singlets, 12 days of incubation, read-out: PGI release, % of the Tx-100 control, 12d
[10] = Echinococcus multilocularis, 288 h, 12 days of incubation, read-out: PGI release, % of Tx-100 control, average, 12d
[11] = Echinococcus multilocularis, 288 h, read-out: E. multilocularis MIC, Alamar Blue vesicle viability assay, 12 days of incubation
[12] = Echinococcus multilocularis, 120 h, read-out: PGI release, % of Tx-100 control, average, 5d
[13] = Echinococcus multilocularis, 120 h, read-out: PGI release, % of the Tx-100 control, 5d
[14] = Echinococcus multilocularis, 288 h, read-out: PGI release, % of Tx-100 control, average, 12d
[15] = Echinococcus multilocularis, 288 h, read-out: PGI release, % of the Tx-100 control, 12d
[16] = read-out: HFF preconfluent IC50

Row | Structure (SMILES) | PGI release, % of Tx-100 control, average, 5d ([2]; 5 days of incubation) | PGI release, % of Tx-100 control, average, 12d ([2]; 12 days of incubation) | activity in the screen at 10 μM (confirmed in triplicates, >20% relative PGI release) [2] | cytotoxicity at 10 µM [2, 7] | cytotoxicity at 10 µM [2, 9] | IC50 ([5]; read-out: RH confluent IC50) | IC50 ([5]; read-out: RH preconfluent IC50) | activity against metacestodes at 1 μM [2] | cytotoxicity at 10 µM [2, 12] | cytotoxicity at 10 µM [2, 13] | cytotoxicity at 10 µM [2, 14] | cytotoxicity at 10 µM [2, 15] | toxicity against E. multilocularis metacestodes compared with host cells (HFF, RH) [2] | IC50 ([6]; read-out: HFF confluent IC50) | IC50 [6, 16] | other results
1 | CCCSc1ccc2nc(NC(=O)OC)[nH]c2c1 [ABZ, albendazole] | – | – | – | – | – | – | – | – | – | – | – | – | – | – | – | parasite burden compared to the control ([1]; p.o. in corn oil, 5 days per week, 4 weeks, BPQ 100 mg/kg, ABZ 200 mg/kg): significant reduction; adverse effects due to treatment ([1]; whole course of treatment, 4 weeks p.o.): None of the mice showed signs of adverse effects
2 | OC(c1cc(C(F)(F)F)nc2c(C(F)(F)F)cccc12)C1CCCCN1 (stereo not shown) [MMV000016, Mefloquine, reference compound] | 0.24% | 8.91% | active | 16.9% | 23.3% | – | – | – | – | – | – | – | – | – | – | activity in the screen at 10 μM (confirmed in triplicates, >20% relative PGI release) ([2]; listed as Mefloquine): identified in our screening; PGI release, % of Tx-100 control at 10 µM [2, 8]: 7.4%; PGI release, % of Tx-100 control at 10 µM [2, 10]: 47.4%; IC50 ([3]; ref Stadelmann et al., 2011, Küster et al., 2011, 2015, Rufener et al., 2018, read-out: IC50 value against this parasite in vitro): > 30000 nM
3 | COC(=O)Nc1nc2ccc(C(=O)c3ccccc3)cc2[nH]1 [MMV003152, Mebendazole, reference compound] | – | – | – | 1.28% | 11.9% | – | – | – | – | – | – | – | – | – | – | concentration inhibiting parasite proliferation ([3]; three weeks treatment, ref Jura et al., 1998): 1 µM
4 | c1ccc(-c2nc(NC3CCCCC3)cc(C3CC3)n2)nc1 [MMV021013] | 3.92% | 24.95% | active | – | – | 2070 nM | 1100 nM | distinct in vitro activities | 37.8% | 34.8% | 42.3% | 92% | as toxic to host cells as it was to E. multilocularis metacestodes | 53100 nM | 5140 nM | MIC [4, 11]: 20 µM (≈ 5.89 µg/mL); EC50 ([2]; Echinococcus multilocularis, 120 h, read-out: E. multilocularis EC50, PGI-assay, 5 days in vitro): 15800 nM
5 | Cc1[nH]c2cc(F)cc(F)c2c(=O)c1-c1ccc(Oc2ccc(OC(F)(F)F)cc2)cc1 [MMV671636, ELQ-400] | 56.00% | 70.43% | active | – | – | 2070 nM | 250 nM | distinct in vitro activities | 5.44% | 6.52% | 76.1% | 24% | specific toxicity | 74800 nM | 12300 nM | E. multilocularis MIC ([4]; Alamar Blue vesicle viability assay, 12 days of incubation, listed as MMV671363): below 1 μM; MIC ([4]; Alamar Blue vesicle viability assay, 12 days of incubation, read-out: E. multilocularis MIC): 0.01 µM (≈ 0.00447 µg/mL); IC50 ([2]; Echinococcus multilocularis, read-out: IC50 against in vitro cultured E. multilocularis metacestodes): 20 nM; EC50 ([2]; read-out: E. multilocularis EC50, PGI-assay, 5 days in vitro): 20 nM; EC50 ([2]; read-out: E. multilocularis EC50, PGI-assay, 5 days in vitro, listed as MMV671363): < 1000 nM
6 | O=C(Nc1cc(C(F)(F)F)cc(C(F)(F)F)c1)c1cc(Cl)ccc1O [MMV687807] | 40.83% | 59.00% | active | – | – | 20100 nM | 1270 nM | distinct in vitro activities | 58.5% | 30.8% | 74.5% | 64.7% | could only exhibit a potential therapeutic window for RH cells | 370 nM | 150 nM | MIC [4, 11]: < 1 µM; toxicity against HFF (in words) ([6]; among the four compounds): highest toxicity against HFF
7 | CO[C@H]1/C=C/O[C@@]2(C)Oc3c(C)c(O)c4c(O)c(c(/C=N/N5CCN(C)CC5)c(O)c4c3C2=O)NC(=O)/C(C)=C\C=C\[C@H](C)[C@H](O)[C@@H](C)[C@@H](O)[C@@H](C)[C@H](OC(C)=O)[C@@H]1C [MMV688775, Rifampicin, reference compound] | – | – | – | -0.7% | -1.35% | – | – | – | – | – | – | – | – | – | – | activity in the present in vitro screen (threshold 20% relative activity compared to Tx-100) [2]: inactive; effect in vitro against E. multilocularis metacestodes [3]; 2006: ineffective
8 | CCCCCCCCCCCCCCCCOP(=O)([O-])OCC[N+](C)(C)C [MMV688990, Miltefosine, reference compound] | – | – | – | -1.11% | -5.17% | – | – | – | – | – | – | – | – | – | – | activity in the present in vitro screen (threshold 20% relative activity compared to Tx-100) [2]: inactive; effect in vitro against E. multilocularis metacestodes [3]; 2006: ineffective
9 | CC(=O)Oc1ccccc1C(=O)Nc1ncc([N+](=O)[O-])s1 [MMV688991, Nitazoxanide, reference compound] | 1.35% | 11.08% | active | 57.7% | 75.5% | – | – | did not maintain its activity | – | – | – | – | – | – | – | PGI release, % of Tx-100 control at 10 µM [2, 8]: 54.7%; PGI release, % of Tx-100 control at 10 µM [2, 10]: 71.7%; concentration shown to be active in vitro against metacestodes ([3]; ref Stettler et al., 2003, Reuter et al., 2006): 3.3 µM

Source: publication PMC6216040, “Repurposing of an old drug: In vitro and in vivo efficacies of buparvaquone against Echinococcus multilocularis” (International Journal for Parasitology: Drugs and Drug …, 2018)
